Molecules are shown by their SMILES. Like-named read-outs stand apart in the source and are kept apart here.

For experiment [1], the target named is 6×HIS-tankyrase1 (1091-1325) (Homo sapiens (Human), UniProt O95271). Put plainly: Tankyrase 1 biochemical assay (AlphaLisa, PARsylation). To be noted: read-out: TNKS1 IC50. (In general: Bead proximity is the source of the signal in Alpha formats.)
Experiment [2] addresses 6×HIS-tankyrase 2 (946-1162) (Homo sapiens (Human), UniProt Q9H2K2). Nature of the experiment: Tankyrase 2 biochemical assay (AlphaLisa, PARsylation). To be noted: 250 nM NAD; read-out: TNKS2 IC50.
The target of another experiment is PARP1 (Homo sapiens (Human), UniProt P09874). Put plainly: PARP1 biochemical assay (Trevigen kit). An excerpt:
PARP1 biochemical assay was purchased as a kit from Trevigen (cat.#4676-096-K) and used per manufacturers recommendations.

The next experiment has as its target PARP2 (Homo sapiens (Human), UniProt Q9UGN5). Nature of the experiment: PARP2 biochemical assay (BPS kit).
Experiment [3] has as its system total β-catenin in SW480 colorectal cells. Nature of the experiment: Total β-catenin MSD 96-well plate assay for SW480 cells. To be noted: Homo sapiens, SW480, read-out: SW480-Total beta-catenin (TBC) IC50 IP.
Experiment [4] deals with Axin2 accumulation in SW480 cells. Nature of the experiment: Axin2 384 immunofluorescence assay. In kind it is cell-based. To be noted: Homo sapiens, read-out: Axin2 384 IF EC50.

Sequence of PARP1 (P09874 whole entry): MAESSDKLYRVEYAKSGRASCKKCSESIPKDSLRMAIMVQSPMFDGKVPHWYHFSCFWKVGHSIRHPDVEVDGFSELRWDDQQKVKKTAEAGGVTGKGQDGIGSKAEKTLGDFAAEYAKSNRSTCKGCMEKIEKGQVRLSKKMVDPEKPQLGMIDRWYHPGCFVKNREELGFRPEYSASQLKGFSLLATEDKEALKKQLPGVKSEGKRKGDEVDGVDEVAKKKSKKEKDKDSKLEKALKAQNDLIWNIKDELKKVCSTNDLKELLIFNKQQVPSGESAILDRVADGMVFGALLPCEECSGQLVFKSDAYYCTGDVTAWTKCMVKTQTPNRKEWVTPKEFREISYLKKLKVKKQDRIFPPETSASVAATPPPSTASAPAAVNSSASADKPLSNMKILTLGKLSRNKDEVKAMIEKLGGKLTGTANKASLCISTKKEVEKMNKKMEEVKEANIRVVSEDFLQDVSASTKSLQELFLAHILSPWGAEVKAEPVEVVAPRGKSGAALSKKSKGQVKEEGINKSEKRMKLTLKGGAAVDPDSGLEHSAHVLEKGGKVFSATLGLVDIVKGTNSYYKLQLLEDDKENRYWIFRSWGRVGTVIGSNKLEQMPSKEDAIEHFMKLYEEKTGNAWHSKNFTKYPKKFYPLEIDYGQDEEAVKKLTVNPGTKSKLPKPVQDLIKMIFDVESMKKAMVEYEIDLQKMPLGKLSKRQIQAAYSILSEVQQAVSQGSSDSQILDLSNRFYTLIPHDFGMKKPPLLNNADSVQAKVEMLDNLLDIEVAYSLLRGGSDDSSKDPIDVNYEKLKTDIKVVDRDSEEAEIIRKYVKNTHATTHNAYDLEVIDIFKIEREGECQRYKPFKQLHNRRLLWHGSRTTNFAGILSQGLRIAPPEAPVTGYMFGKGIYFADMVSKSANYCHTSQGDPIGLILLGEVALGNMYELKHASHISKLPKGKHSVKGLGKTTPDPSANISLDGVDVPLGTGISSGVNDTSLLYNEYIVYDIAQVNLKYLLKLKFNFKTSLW
Sequence of PARP2 (Q9UGN5 whole entry): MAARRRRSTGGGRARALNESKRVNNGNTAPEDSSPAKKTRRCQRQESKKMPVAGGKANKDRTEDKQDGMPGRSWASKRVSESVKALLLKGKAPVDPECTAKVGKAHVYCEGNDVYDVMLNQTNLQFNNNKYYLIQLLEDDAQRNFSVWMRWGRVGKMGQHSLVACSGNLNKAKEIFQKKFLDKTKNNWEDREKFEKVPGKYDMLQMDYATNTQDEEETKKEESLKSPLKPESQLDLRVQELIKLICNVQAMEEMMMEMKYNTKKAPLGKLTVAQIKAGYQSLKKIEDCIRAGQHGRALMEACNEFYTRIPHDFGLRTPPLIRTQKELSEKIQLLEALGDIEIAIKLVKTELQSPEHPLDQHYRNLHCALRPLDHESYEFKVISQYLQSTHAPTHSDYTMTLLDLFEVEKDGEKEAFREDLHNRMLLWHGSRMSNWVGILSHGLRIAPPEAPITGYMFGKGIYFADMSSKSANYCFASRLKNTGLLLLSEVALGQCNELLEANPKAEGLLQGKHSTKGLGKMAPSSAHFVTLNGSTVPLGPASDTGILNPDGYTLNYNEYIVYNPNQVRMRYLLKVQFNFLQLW
Sequence of 6×HIS-tankyrase 2 (946-1162) (Q9H2K2 946-1162): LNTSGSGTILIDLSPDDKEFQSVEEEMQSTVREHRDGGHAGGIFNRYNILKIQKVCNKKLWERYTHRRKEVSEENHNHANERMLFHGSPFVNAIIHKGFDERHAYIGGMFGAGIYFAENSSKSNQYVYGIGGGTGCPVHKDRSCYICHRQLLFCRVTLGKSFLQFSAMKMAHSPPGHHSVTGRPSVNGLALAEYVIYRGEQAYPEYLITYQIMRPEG
Sequence of 6×HIS-tankyrase1 (1091-1325) (O95271 1091-1325): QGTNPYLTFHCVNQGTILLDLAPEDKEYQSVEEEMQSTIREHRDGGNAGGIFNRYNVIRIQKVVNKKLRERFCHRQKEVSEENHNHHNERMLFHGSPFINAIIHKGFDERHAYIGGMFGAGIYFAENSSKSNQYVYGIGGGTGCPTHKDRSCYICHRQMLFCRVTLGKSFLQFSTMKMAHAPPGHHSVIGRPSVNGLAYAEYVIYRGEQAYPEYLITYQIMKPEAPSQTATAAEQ

As for `O=C(CCCc1nc2ccccc2c(=O)[nH]1)N[C@H]1CC[C@H](OCc2ccccc2)C1` (stereo in doubt) [Example 62, N-((1R,3R)-3-(benzyloxy)cyclopentyl)-4-(4-oxo-3,4-dihydroquinazolin-2-yl)butanamide+N-((1S,3S)-3-(benzyloxy)cyclopentyl)-4-(4-oxo-3,4-dihydroquinazolin-2-yl)butanamide], the IC50 was 587 nM in experiment [1] (400 nM NAD, 60 minutes at RT); 138 nM in experiment [2]; 7680 nM against PARP1; 2840 nM against PARP2; greater than 10000 nM in experiment [3].

`O=C(CCCc1nc2ccccc2c(=O)[nH]1)N1CCC(c2nnc(-c3cccc(Cl)c3)o2)CC1` [Example 3, 2-(4-(4-(5-(3-chlorophenyl)-1,3,4-oxadiazol-2-yl)-1-piperidinyl)-4-oxobutyl)-4(3H)-quinazolinone]: the IC50 in experiment [1] (400 nM NAD, 60 minutes at RT) amounted to 11 nM; in experiment [2], 2.54 nM; against PARP1 it was 3050 nM; at PARP2 it was 414 nM; in experiment [3], 41.7 nM. Moreover, the EC50 in experiment [4] (SW480 cells, 24 hours) worked out at 260 nM.

`O=C(CCCc1nc2ccccc2c(=O)[nH]1)N1CCC(c2nnc(-c3ccc(Cl)cc3)o2)CC1` [Example 4, 2-(4-(4-(5-(4-chlorophenyl)-1,3,4-oxadiazol-2-yl)piperidin-1-yl)-4-oxobutyl)quinazolin-4(3H)-one]: the IC50 was 11 nM in experiment [1] (400 nM NAD, 60 minutes at RT); 2.06 nM in experiment [2]; 2410 nM against PARP1; 961 nM against PARP2; 36.4 nM in experiment [3]. Besides, the EC50 in experiment [4] (SW480 cells, 24 hours) is 210 nM.

In the case of `O=C(CCCc1nc2ccccc2c(=O)[nH]1)N1CCC(c2nnc(-c3cccc(F)c3)o2)CC1` [Example 5, 2-(4-(4-(5-(3-fluorophenyl)-1,3,4-oxadiazol-2-yl)-1-piperidinyl)-4-oxobutyl)-4(3H)-quinazolinone], the IC50 in experiment [1] (400 nM NAD, 60 minutes at RT) worked out at 31.8 nM; in experiment [2], 4.84 nM; at PARP1, 3760 nM; at PARP2 it was 2350 nM; in experiment [3] it was 92.2 nM. Besides, the EC50 in experiment [4] (SW480 cells, 24 hours) was 771 nM.

Regarding `O=C(CCCc1nc2ccccc2c(=O)[nH]1)N1CCC(c2nnc(-c3ccc(F)cc3)o2)CC1` [Example 6, 2-(4-(4-(5-(4-fluorophenyl)-1,3,4-oxadiazol-2-yl)piperidin-1-yl)-4-oxobutyl)quinazolin-4(3H)-one], the IC50 in experiment [1] (400 nM NAD, 60 minutes at RT) amounted to 18.8 nM; in experiment [2], 2.59 nM; against PARP1, 5410 nM; against PARP2, 783 nM; in experiment [3] it was 63.9 nM. Further, in experiment [4] (SW480 cells, 24 hours), the EC50 worked out at 247 nM.

As for `Cc1ccc2[nH]c(=O)n(C3CCN(C(=O)CCCc4nc5ccccc5c(=O)[nH]4)CC3)c2c1` [Example 7, 2-(4-(4-(6-methyl-2-oxo-2,3-dihydro-1H-benzimidazol-1-yl)-1-piperidinyl)-4-oxobutyl)-4(3H)-quinazolinone], the IC50 in experiment [1] (400 nM NAD, 60 minutes at RT) amounted to 6.94 nM; in experiment [2], 3.38 nM; against PARP1 it was 1930 nM; at PARP2 it was 192 nM; in experiment [3] it was 626 nM. Besides, the EC50 in experiment [4] (SW480 cells, 24 hours) was determined as 651 nM.

Turning to `O=C(CCCc1nc2ccccc2c(=O)[nH]1)N1CCC(c2nnc(-c3ccccc3)s2)CC1` [Example 9, 2-(4-oxo-4-(4-(5-phenyl-1,3,4-thiadiazol-2-yl)-1-piperidinyl)butyl)-4(3H)-quinazolinone], the IC50 was 168 nM in experiment [1] (400 nM NAD, 60 minutes at RT); 18.5 nM in experiment [2]; 2860 nM against PARP1; 471 nM against PARP2; 56.6 nM in experiment [3]. Also, the EC50 in experiment [4] (SW480 cells, 24 hours) stood at 1230 nM.

`Cc1ccc2c(c1)[nH]c(=O)n2C1CCN(C(=O)CCCc2nc3ccccc3c(=O)[nH]2)CC1` [Example 11, 2-(4-(4-(5-methyl-2-oxo-2,3-dihydro-1H-benzimidazol-1-yl)-1-piperidinyl)-4-oxobutyl)-4(3H)-quinazolinone]: the IC50 in experiment [1] (400 nM NAD, 60 minutes at RT) came out at 2.76 nM; in experiment [2], 1.6 nM; on PARP1 it was 867 nM; on PARP2, 103 nM; in experiment [3], 157 nM. For the same molecule, the concentration giving a half-maximal response (EC50) in experiment [4] (SW480 cells, 24 hours) worked out at 247 nM.

In the case of `O=C(CCCc1nc2ccccc2c(=O)[nH]1)N1CCC(c2nnc(-c3ccccn3)o2)CC1` [Example 12, 2-(4-oxo-4-(4-(5-(2-pyridinyl)-1,3,4-oxadiazol-2-yl)-1-piperidinyl)butyl)-4(3H)-quinazolinone], the IC50 is 89.7 nM in experiment [1] (400 nM NAD, 60 minutes at RT); 15.9 nM in experiment [2]; 6290 nM against PARP1; 1920 nM on PARP2; 1840 nM in experiment [3]. Further, the EC50 in experiment [4] (SW480 cells, 24 hours) worked out at 1220 nM.

As to `Cc1cc(=O)[nH]c(SCCC(=O)N[C@H]2CC[C@H](c3nnc(-c4ccccc4)o3)CC2)n1` [Example 37, 3-((4-methyl-6-oxo-1,6-dihydropyrimidin-2-yl)thio)-N-((1r,4r)-4-(5-phenyl-1,3,4-oxadiazol-2-yl)cyclohexyl)propanamide], the IC50 was 3.7 nM in experiment [1] (400 nM NAD, 60 minutes at RT); 3.48 nM in experiment [2]; greater than 85000 nM on PARP1; greater than 170000 nM on PARP2; 738 nM in experiment [3].

Regarding `O=C(CCCc1nc2ccccc2c(=O)[nH]1)N1CC=C(n2c(=O)[nH]c3ccccc32)CC1` [Example 46, 2-(4-oxo-4-(4-(2-oxo-2,3-dihydro-1H-benzimidazol-1-yl)-3,6-dihydro-1(2H)-pyridinyl)butyl)-4(3H)-quinazolinone trifluoroacetic acid], the half-inhibitory concentration (IC50) in experiment [1] (400 nM NAD, 60 minutes at RT) came out at 17.7 nM; in experiment [2], 4.01 nM; against PARP1 it was 2050 nM; in experiment [3], 1360 nM. Moreover, the EC50 in experiment [4] (SW480 cells, 24 hours) came to 4780 nM.

As for `O=C(CCCc1nc2ccccc2c(=O)[nH]1)N1CCC(N2C(=O)C(F)(F)c3ccccc32)CC1` [Example 60, 2-(4-(4-(3,3-difluoro-2-oxo-2,3-dihydro-1H-indol-1-yl)-1-piperidinyl)-4-oxobutyl)-4(3H)-quinazolinone], the IC50 in experiment [1] worked out at 46 nM; in experiment [2], 28.9 nM; at PARP1, 4530 nM. The EC50 in experiment [4] (SW480, 24 h) came to 2410 nM.

For the molecule `O=C(CCSc1nc2ccccc2c(=O)[nH]1)N1CCC(n2c(=O)[nH]c3cc(Cl)ccc32)CC1` [Example 82, 2-((3-(4-(5-chloro-2-oxo-2,3-dihydro-1H-benzo[d]imidazol-1-yl)piperidin-1-yl)-3-oxopropyl)thio)quinazolin-4(3H)-one], the IC50 stood at 128 nM in experiment [1] (400 nM NAD, 60 minutes at RT); 73.7 nM in experiment [2]; 1470 nM on PARP1; 99.4 nM against PARP2; 3310 nM in experiment [3].

For the molecule `O=C(CSc1nc2ccccc2c(=O)[nH]1)N[C@H]1CC[C@H](n2c(=O)[nH]c3cc(Cl)ccc32)CC1` [Example 87, N-((1r,4r)-4-(5-chloro-2-oxo-2,3-dihydro-1H-benzo[d]imidazol-1-yl)cyclohexyl)-2-((4-oxo-3,4-dihydroquinazolin-2-yl)thio)acetamide], the IC50 in experiment [1] (400 nM NAD, 60 minutes at RT) is 0.0597 nM; in experiment [2] it was 2.52 nM; on PARP1, greater than 85000 nM; in experiment [3], 7.27 nM. The EC50 in experiment [4] (SW480 cells, 24 hours) amounted to 25.8 nM.

Turning to `O=C(CCSc1nc2ccccc2c(=O)[nH]1)N1CCN(c2n[nH]c3ccccc23)CC1` [Example 94, 2-((3-(4-(1H-indazol-3-yl)-1-piperazinyl)-3-oxopropyl)sulfanyl)-4(3H)-quinazolinone], the 50% inhibitory concentration (IC50) in experiment [1] (400 nM NAD, 60 minutes at RT) was found to be 12.1 nM; in experiment [2] it was 6.3 nM; on PARP1 it was 1230 nM; on PARP2 it was 89.5 nM; in experiment [3] it was 2220 nM.

In the case of `O=C(CCCc1nc2ccccc2c(=O)[nH]1)N[C@H]1CC[C@H](c2ncc(-c3ccccc3)o2)CC1` [Example 95, 4-(4-oxo-3,4-dihydro-2-quinazolinyl)-N-(trans-4-(5-phenyl-1,3-oxazol-2-yl)cyclohexyl)butanamide], the IC50 in experiment [1] (400 nM NAD, 60 minutes at RT) came out at 0.0979 nM; in experiment [2], 0.16 nM; on PARP1 it was 1930 nM; against PARP2 it was 1070 nM; in experiment [3] it was 4.83 nM.

`N#Cc1cccc(-c2nnc([C@H]3CC[C@H](NC(=O)CCc4nc5ccccc5c(=O)[nH]4)CC3)o2)c1` [Example 137, N-((1r,4r)-4-(5-(3-cyanophenyl)-1,3,4-oxadiazol-2-yl)cyclohexyl)-3-(4-oxo-3,4-dihydroquinazolin-2-yl)propanamide]: the IC50 in experiment [1] (400 nM NAD, 60 minutes at RT) was found to be 217 nM; in experiment [2], 99.8 nM; against PARP2 it was 4680 nM; in experiment [3], 741 nM. Also, in experiment [4] (SW480 cells, 24 hours), the EC50 came to 1820 nM.

In the case of `O=C(CCSc1cc(=O)n2ccccc2n1)N[C@H]1CC[C@H](c2nnc(-c3ccccc3)o2)CC1` [Example 144, 3-((4-oxo-4H-pyrido[1,2-a]pyrimidin-2-yl)sulfanyl)-N-(trans-4-(5-phenyl-1,3,4-oxadiazol-2-yl)cyclohexyl)propanamide], the IC50 is 4.78 nM in experiment [1] (400 nM NAD, 60 minutes at RT); 5.46 nM in experiment [2]; greater than 85000 nM against PARP1; greater than 170000 nM against PARP2; 349 nM in experiment [3].

On to `O=C(CCSc1nc2ccc(F)cc2c(=O)[nH]1)N[C@H]1CC[C@H](c2nnc(-c3ccccc3)o2)CC1` [Example 145, 3-((6-fluoro-4-oxo-3,4-dihydro-2-quinazolinyl)sulfanyl)-N-(trans-4-(5-phenyl-1,3,4-oxadiazol-2-yl)cyclohexyl)propanamide], for which the IC50 was found to be 0.148 nM in experiment [1] (400 nM NAD, 60 minutes at RT); 5.02 nM in experiment [2]; 3540 nM at PARP1; 1120 nM against PARP2; 7.66 nM in experiment [3].

What is called IC50 is the concentration at which inhibition is half-maximal. One may read the EC50 as the concentration that produces a half-maximal response.

(Values after patent US9505749B2, “Quinazolinone compounds and derivatives thereof” (AMGEN INC., priority 2012, dated 2016).)
